According to ChEMBL document CHEMBL1147165, “Synthesis and alpha(1)-adrenoceptor antagonist activity of derivatives and isosters of the furan portion of (+)-cyclazosin” (Bioorg Med Chem, 2007):

Assays:
[1] = target: T1, Alpha-1B adrenergic receptor (Rattus norvegicus) (UniProt P15823); assay: (§1) Antagonist activity against adrenergic Alpha-1B receptor in rat spleen assessed as inhibition of phenylephrine-induced response; format: functional, tissue-based
T1 sequence (whole entry): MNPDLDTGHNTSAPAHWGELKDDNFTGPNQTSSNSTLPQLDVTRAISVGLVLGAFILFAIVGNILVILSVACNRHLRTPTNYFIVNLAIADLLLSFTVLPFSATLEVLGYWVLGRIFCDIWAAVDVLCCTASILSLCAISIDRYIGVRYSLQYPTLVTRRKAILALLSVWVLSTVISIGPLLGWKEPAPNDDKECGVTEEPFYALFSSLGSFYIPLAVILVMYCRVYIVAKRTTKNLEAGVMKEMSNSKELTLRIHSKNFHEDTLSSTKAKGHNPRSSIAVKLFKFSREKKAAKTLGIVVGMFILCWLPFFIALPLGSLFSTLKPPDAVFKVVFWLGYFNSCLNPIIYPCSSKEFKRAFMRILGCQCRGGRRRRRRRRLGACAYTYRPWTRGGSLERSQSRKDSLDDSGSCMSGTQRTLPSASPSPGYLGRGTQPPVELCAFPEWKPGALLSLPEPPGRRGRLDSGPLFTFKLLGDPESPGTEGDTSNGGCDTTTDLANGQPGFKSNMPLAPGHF

[2] = target: T2, Alpha-1B adrenergic receptor (Homo sapiens, UniProt P35368); assay: Displacement of [3H]prazosin from human adrenergic alpha-1b receptor expressed in CHO cells; format: cell-based
T2 sequence (P35368 whole entry): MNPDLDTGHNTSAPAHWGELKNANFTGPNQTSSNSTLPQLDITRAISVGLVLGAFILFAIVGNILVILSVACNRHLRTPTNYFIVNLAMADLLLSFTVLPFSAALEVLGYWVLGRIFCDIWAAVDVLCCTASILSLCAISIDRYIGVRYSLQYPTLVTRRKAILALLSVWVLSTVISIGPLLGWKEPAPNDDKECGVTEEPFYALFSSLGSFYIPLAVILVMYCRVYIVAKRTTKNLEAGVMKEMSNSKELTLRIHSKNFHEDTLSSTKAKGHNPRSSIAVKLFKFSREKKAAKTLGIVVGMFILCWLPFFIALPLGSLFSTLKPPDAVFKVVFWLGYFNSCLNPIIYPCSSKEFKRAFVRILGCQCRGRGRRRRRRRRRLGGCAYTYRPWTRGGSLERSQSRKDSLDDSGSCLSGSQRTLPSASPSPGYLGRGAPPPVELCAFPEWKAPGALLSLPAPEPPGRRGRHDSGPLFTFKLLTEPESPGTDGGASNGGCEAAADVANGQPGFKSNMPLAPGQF

[3] = target: T3, Alpha-1D adrenergic receptor (Homo sapiens, UniProt P25100); assay: Displacement of [3H]prazosin from human adrenergic alpha-1d receptor expressed in CHO cells; format: cell-based
T3 sequence (P25100 whole entry): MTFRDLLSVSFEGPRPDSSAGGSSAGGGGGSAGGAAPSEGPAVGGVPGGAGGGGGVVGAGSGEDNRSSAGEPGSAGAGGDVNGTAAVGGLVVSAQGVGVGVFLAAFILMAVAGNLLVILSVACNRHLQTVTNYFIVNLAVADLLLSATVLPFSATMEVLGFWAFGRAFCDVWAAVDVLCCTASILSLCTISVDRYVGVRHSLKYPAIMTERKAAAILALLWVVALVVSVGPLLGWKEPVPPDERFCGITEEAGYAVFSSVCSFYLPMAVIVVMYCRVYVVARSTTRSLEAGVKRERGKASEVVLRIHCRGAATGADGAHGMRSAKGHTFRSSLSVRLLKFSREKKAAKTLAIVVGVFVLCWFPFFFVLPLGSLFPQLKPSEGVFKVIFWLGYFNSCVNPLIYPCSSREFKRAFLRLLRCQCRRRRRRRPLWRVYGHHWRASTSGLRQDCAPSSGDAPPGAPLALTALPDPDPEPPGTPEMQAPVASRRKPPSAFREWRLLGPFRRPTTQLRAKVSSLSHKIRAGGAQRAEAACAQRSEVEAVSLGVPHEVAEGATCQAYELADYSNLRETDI

[4] = target: T4, Alpha-1A adrenergic receptor (Homo sapiens, UniProt P35348); assay: Displacement of [3H]prazosin from human adrenergic alpha-1a receptor expressed in CHO cells; format: cell-based
T4 sequence (P35348 whole entry): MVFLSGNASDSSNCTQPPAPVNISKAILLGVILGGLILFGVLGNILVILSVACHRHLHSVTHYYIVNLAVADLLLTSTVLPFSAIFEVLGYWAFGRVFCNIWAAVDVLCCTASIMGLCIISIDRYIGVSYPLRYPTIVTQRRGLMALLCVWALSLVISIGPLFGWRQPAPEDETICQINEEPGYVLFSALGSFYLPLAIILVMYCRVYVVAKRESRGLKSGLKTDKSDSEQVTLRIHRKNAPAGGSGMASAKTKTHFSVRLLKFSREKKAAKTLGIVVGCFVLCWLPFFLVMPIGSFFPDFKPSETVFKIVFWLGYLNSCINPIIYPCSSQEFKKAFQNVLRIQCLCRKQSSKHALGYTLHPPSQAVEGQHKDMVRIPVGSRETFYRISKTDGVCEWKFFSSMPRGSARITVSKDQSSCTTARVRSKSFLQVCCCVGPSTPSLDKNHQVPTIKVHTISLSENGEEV

Rattus norvegicus = species on record: Rattus norvegicus; assay: Selectivity ratio for rat adrenergic Alpha-1D receptor over rat adrenergic Alpha-1B receptor; format: functional
[5] = target: Alpha adrenergic receptor 1A and 1B (Rattus norvegicus) (UniProt P15823+P43140); assay: Selectivity ratio for rat adrenergic alpha-1A receptor over rat adrenergic Alpha-1B receptor; format: functional
[6] = target: Alpha adrenergic receptor (1a and 1d) (Homo sapiens) (UniProt P35348+P25100); assay: Selectivity ratio of pKi for human adrenergic alpha-1a receptor to pKi for human adrenergic alpha1d receptor; format: protein assay
[7] = target: Adrenergic receptors; alpha-1 A & B (Homo sapiens) (UniProt P35348+P35368); assay: Selectivity ratio of pKi for human adrenergic alpha-1a receptor to pKi for human adrenergic alpha-1b receptor; format: protein assay
[8] = target: T5, Alpha-1A adrenergic receptor (Rattus norvegicus) (UniProt P43140); assay: (§2) Antagonist activity against adrenergic alpha-1A receptor in rat prostatic vas deferens assessed as inhibition of noradrenaline-induced contraction; format: functional, tissue-based
T5 sequence (whole entry): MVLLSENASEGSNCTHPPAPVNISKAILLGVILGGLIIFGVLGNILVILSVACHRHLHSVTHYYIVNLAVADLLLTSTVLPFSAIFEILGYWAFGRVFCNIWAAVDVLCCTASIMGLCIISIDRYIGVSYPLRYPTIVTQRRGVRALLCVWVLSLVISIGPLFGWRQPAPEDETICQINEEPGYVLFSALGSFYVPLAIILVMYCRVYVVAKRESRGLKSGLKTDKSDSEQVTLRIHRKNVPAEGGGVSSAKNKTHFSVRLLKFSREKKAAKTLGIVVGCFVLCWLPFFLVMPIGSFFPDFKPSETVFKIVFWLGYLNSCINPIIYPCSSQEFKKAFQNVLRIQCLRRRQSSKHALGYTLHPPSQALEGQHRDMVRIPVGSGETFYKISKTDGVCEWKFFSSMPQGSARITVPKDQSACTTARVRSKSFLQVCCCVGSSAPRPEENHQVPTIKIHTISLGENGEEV

Homo sapiens = species on record: Homo sapiens; assay: Selectivity ratio of pKi for human adrenergic alpha-1d receptor to pKi for human adrenergic alpha-1b receptor
[9] = target: Alpha adrenergic receptor 1A and 1D (Rattus norvegicus) (UniProt P23944+P43140); assay: Selectivity ratio for rat adrenergic alpha-1A receptor over rat adrenergic Alpha-1D receptor; format: functional
[10] = target: T6, Alpha-1D adrenergic receptor (Rattus norvegicus, UniProt P23944); assay: (§3) Antagonist activity against adrenergic Alpha-1D receptor in rat thoracic aorta assessed as noradrenaline-induced response; format: functional, tissue-based; details: read-out: pA2 (converted)
T6 sequence (P23944 whole entry): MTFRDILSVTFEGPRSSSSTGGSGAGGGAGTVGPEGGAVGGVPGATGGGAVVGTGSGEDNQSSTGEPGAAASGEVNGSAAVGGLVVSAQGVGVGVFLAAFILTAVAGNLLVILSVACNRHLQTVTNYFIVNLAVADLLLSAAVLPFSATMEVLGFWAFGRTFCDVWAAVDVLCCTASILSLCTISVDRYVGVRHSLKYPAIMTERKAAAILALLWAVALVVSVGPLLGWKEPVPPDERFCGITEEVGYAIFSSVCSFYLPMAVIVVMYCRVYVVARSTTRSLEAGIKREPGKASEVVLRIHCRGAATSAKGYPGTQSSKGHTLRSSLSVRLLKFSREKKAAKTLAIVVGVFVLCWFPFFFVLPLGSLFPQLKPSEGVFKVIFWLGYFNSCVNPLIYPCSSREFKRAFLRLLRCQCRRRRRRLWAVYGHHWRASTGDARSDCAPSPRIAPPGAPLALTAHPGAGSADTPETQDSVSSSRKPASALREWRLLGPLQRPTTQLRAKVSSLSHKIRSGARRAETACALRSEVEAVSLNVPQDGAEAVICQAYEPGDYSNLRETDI

[11] = target: T7, Alpha-1D adrenergic receptor (Rattus norvegicus) (UniProt P23944); assay: as §3; format: functional, tissue-based
T7 sequence (whole entry): T6 sequence (P23944 whole entry)

[12] = target: T8, Alpha-1A adrenergic receptor (Rattus norvegicus, UniProt P43140); assay: as §2; format: functional, tissue-based; details: read-out: pA2 (converted)
T8 sequence (P43140 whole entry): T5 sequence (whole entry)

[13] = target: T9, Alpha-1B adrenergic receptor (Rattus norvegicus, UniProt P15823); assay: as §1; format: functional, tissue-based; details: read-out: pA2 (converted)
T9 sequence (P15823 whole entry): T1 sequence (whole entry)

Structure (SMILES)	pKb [1]	Ki [2]	Ki [3]	Ki [4]	Selectivity ratio (Rattus norvegicus)	Selectivity ratio [5]	Selectivity ratio [6]	Selectivity ratio [7]	pKb [8]	Selectivity ratio (Homo sapiens)	Selectivity ratio [9]	Kb [10]	pKb [11]	Kb [12]	Kb [13]
COc1cc2nc(N3CCN(C(=O)c4ccc(C(C)=O)o4)[C@H]4CCCC[C@H]43)nc(N)c2cc1OC	8.13	1.38 nM	7.41 nM	25.7 nM	29	12	4	19	7.05	5	0.4	214 nM	–	–	–
COc1cc2nc(N3CCN(C(=O)c4ccccn4)[C@H]4CCCC[C@H]43)nc(N)c2cc1OC	8.64	5.89 nM	26.9 nM	49 nM	33	40	2	8	7.04	5	1	–	7.12	–	–
COc1cc2nc(N3CCN(C(=O)c4ccccc4)[C@H]4CCCC[C@H]43)nc(N)c2cc1OC	8.83	0.49 nM	3.24 nM	4.17 nM	12	21	1	8.5	–	7	2	–	7.76	30.9 nM	–
COc1ccc(C(=O)N2CCN(c3nc(N)c4cc(OC)c(OC)cc4n3)[C@@H]3CCCC[C@@H]32)o1	8.5	0.871 nM	3.63 nM	27.5 nM	28	45	8	32	–	4	2	89.1 nM	–	141 nM	–
COc1cc2nc(N3CCN(C(=O)c4ccc(C)o4)[C@H]4CCCC[C@H]43)nc(N)c2cc1OC	–	0.871 nM	4.79 nM	23.4 nM	41	148	5	27	–	6	4	91.2 nM	–	331 nM	2.24 nM
COc1cc2nc(N3CCN(C(=O)c4ccc[nH]4)[C@H]4CCCC[C@H]43)nc(N)c2cc1OC	8.05	3.16 nM	1.51 nM	10.5 nM	5	10	7	3	7.06	0.5	2	–	7.33	–	–

These reach a lower Ki [2]. Values come first.

pKb [1]	Ki [2]	Ki [3]	Ki [4]	Selectivity ratio (Rattus norvegicus)	Selectivity ratio [5]	Selectivity ratio [6]	Selectivity ratio [7]	pKb [8]	Selectivity ratio (Homo sapiens)	Selectivity ratio [9]	Kb [10]	pKb [11]	Kb [12]	Kb [13]	Structure (SMILES)
8.5	0.309 nM	1.55 nM	3.47 nM	19	9	2	11	7.53	5	0.5	58.9 nM	–	–	–	COc1cc2nc(N3CCN(C(=O)c4ccc(Br)o4)[C@H]4CCCC[C@H]43)nc(N)c2cc1OC
8.78	0.24 nM	2.34 nM	4.27 nM	21	22	2	18	7.44	10	1	35.5 nM	–	–	–	COc1cc2nc(N3CCN(C(=O)c4cccs4)[C@H]4CCCC[C@H]43)nc(N)c2cc1OC
8.86	0.135 nM	3.24 nM	12.3 nM	–	–	–	–	–	–	–	–	–	17 nM	–	COc1cc2nc(N3CCN(C(=O)c4ccco4)[C@H]4CCCC[C@H]43)nc(N)c2cc1OC [CYCLAZOSIN]
